Assay results as given in patent US11572590B2, “Methods for evaluating tumor cell spheroids using 3D microfluidic cell culture device” (Dana-Farber Cancer Institute, Inc., priority 2017, dated 2023).
Where two headings read alike, the source gives them in different places.

How the values were obtained:
Assay in all cases: SelectScreen Kinase Profiling, single point inhibition and IC50 for off-target kinases
Assay type in all cases: biochemical
[1] = biological target: off-target kinases (Homo sapiens, UniProt P10721, T670I/V559D); conditions: KIT V559D T670I, LanthaScreen Binding
[2] = biological target: off-target kinases (Homo sapiens, UniProt Q15375); conditions: EPHA7, LanthaScreen Binding
[3] = biological target: off-target kinases (Homo sapiens, UniProt P49760); conditions: CLK2, ZLYTE, ATP Km app
[4] = biological target: off-target kinases (Homo sapiens, UniProt P51812); conditions: RPS6KA3 (RSK2), ZLYTE, ATP Km app
[5] = biological target: off-target kinases (Homo sapiens, UniProt P48729); conditions: CSNK1A1 (CK1 alpha 1), ZLYTE, ATP Km app
[6] = biological target: off-target kinases (Homo sapiens, UniProt Q9P286); conditions: PAK7 (KIAA1264), ATP Km app, ZLYTE
[7] = biological target: off-target kinases (Homo sapiens, UniProt Q14012); conditions: CAMK1 (CaMK1), Adapta, ATP 10
[8] = biological target: off-target kinases (Homo sapiens, UniProt O75116); conditions: ROCK2, ZLYTE, ATP Km app
[9] = biological target: off-target kinases (Homo sapiens, UniProt P30530, R499C); conditions: AXL R499C, mutant y, LanthaScreen Binding
Chain of off-target kinases (Homo sapiens, UniProt P30530, R499C) (P30530 26-894 R499C): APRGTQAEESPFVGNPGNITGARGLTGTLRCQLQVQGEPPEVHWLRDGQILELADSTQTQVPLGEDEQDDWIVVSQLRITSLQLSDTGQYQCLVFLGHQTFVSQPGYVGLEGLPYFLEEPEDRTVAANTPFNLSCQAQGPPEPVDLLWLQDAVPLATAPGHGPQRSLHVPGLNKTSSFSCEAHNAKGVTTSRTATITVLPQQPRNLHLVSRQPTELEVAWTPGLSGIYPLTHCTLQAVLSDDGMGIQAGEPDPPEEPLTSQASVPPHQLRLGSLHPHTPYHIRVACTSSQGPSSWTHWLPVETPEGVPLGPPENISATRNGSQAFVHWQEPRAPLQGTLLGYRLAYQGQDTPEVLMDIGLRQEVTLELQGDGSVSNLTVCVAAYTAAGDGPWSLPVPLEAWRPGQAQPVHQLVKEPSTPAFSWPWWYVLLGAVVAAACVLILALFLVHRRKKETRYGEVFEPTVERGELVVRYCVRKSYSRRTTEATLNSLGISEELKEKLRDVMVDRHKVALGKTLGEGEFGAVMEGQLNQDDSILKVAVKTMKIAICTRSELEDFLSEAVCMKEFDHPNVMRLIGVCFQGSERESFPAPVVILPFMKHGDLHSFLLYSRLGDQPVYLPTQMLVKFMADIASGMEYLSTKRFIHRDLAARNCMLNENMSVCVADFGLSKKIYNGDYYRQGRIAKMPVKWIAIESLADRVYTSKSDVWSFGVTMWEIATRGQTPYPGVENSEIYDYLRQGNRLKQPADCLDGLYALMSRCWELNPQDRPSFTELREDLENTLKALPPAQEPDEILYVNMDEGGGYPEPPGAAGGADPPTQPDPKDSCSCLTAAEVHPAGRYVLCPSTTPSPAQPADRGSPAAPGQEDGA

Chain of off-target kinases (Homo sapiens, UniProt P10721, T670I/V559D) (P10721 26-976 V559D/T670I): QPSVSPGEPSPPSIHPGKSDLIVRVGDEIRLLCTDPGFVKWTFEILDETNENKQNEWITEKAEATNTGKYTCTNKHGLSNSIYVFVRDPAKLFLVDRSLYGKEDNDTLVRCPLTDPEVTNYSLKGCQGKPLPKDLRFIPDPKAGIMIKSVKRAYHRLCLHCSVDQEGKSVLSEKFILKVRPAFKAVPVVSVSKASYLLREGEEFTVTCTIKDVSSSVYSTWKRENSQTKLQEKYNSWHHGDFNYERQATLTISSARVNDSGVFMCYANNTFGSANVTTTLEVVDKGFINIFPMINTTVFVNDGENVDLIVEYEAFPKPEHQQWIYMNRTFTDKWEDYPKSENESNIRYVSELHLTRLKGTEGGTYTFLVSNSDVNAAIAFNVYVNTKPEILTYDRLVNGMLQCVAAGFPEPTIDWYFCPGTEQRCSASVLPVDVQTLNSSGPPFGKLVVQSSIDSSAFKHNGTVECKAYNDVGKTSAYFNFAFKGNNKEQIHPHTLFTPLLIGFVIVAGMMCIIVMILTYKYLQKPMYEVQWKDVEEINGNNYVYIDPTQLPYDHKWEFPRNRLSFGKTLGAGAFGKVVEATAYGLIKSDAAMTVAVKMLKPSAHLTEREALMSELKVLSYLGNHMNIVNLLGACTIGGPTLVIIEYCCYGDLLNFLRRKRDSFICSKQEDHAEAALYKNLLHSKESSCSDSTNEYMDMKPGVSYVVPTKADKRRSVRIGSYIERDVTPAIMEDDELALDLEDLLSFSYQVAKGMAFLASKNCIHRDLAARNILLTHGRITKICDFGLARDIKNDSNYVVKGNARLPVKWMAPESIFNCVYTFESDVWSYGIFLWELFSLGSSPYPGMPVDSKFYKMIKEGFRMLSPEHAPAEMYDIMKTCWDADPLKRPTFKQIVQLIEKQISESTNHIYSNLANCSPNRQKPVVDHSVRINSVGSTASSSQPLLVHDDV
Chain of off-target kinases (Homo sapiens, UniProt Q15375) (Q15375 28-998): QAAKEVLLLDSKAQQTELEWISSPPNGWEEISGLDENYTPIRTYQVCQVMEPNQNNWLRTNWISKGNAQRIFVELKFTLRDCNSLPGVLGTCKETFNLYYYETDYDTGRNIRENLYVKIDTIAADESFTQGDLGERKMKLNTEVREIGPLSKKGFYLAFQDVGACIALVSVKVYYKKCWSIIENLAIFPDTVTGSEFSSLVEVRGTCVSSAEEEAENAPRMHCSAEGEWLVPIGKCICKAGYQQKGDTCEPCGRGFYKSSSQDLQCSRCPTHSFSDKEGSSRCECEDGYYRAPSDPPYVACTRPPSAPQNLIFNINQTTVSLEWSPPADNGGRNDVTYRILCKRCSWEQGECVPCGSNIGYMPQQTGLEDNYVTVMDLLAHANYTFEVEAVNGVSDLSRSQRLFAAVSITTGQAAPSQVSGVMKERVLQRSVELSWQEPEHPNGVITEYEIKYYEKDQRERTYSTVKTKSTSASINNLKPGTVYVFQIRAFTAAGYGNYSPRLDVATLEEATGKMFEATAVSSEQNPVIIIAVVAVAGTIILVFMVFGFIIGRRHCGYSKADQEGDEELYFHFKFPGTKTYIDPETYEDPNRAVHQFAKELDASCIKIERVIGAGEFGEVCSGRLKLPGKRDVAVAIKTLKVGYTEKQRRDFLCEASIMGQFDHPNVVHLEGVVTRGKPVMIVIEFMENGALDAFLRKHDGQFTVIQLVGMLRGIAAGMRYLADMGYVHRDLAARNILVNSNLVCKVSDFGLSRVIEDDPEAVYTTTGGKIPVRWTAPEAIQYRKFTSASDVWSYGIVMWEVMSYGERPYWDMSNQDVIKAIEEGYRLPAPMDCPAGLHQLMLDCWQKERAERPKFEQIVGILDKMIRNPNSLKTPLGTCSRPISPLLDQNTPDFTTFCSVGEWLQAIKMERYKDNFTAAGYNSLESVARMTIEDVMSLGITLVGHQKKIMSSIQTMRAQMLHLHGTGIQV
Chain of off-target kinases (Homo sapiens, UniProt O75116) (O75116 whole entry): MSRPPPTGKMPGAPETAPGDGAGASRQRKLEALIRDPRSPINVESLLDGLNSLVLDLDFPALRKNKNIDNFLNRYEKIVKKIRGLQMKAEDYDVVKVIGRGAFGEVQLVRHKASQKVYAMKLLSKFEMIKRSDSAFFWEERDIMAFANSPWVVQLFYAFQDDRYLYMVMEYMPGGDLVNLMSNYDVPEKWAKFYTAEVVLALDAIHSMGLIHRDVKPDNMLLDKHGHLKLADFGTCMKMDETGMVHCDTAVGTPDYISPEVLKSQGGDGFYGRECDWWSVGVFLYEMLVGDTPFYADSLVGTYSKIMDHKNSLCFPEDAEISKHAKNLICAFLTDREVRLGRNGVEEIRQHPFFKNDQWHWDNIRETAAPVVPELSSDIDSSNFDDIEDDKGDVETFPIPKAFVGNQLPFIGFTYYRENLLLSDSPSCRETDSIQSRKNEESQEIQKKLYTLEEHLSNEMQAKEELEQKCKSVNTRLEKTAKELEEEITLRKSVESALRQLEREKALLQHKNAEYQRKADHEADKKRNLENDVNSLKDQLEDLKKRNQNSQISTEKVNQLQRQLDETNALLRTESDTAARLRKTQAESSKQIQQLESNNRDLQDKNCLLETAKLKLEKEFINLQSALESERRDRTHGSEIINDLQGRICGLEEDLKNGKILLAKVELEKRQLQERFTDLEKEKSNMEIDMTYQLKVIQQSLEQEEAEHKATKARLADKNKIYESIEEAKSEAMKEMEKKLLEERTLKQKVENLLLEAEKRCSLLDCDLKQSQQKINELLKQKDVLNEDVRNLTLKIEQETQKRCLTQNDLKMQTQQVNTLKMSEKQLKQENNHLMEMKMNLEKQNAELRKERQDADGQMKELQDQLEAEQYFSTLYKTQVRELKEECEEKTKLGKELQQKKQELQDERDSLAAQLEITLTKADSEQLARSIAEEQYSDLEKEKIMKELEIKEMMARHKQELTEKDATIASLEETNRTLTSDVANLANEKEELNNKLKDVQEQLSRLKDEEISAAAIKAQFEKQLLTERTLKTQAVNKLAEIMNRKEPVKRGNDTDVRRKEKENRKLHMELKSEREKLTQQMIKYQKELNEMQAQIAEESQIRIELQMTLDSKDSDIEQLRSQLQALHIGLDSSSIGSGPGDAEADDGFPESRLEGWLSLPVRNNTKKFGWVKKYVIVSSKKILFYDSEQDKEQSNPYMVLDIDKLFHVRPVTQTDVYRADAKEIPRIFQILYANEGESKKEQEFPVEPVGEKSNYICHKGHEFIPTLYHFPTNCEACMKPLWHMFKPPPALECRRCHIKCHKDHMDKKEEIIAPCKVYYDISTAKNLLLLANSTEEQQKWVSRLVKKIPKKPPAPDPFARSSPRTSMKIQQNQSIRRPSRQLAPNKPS
Chain of off-target kinases (Homo sapiens, UniProt P49760) (P49760 whole entry): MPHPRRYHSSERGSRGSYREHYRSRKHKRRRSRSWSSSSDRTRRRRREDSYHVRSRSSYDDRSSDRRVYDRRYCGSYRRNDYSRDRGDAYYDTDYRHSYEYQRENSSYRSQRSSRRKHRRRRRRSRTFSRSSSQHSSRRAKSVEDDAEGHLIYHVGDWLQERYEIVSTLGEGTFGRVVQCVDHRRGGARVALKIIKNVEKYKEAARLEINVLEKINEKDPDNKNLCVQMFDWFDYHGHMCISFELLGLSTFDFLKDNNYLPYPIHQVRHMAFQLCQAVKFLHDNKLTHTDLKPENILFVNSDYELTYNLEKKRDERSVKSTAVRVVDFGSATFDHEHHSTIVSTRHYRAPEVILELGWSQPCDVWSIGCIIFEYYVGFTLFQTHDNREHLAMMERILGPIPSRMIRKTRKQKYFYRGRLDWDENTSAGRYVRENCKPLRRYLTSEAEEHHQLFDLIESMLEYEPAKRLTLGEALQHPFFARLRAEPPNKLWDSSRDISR
Chain of off-target kinases (Homo sapiens, UniProt P48729) (P48729 whole entry): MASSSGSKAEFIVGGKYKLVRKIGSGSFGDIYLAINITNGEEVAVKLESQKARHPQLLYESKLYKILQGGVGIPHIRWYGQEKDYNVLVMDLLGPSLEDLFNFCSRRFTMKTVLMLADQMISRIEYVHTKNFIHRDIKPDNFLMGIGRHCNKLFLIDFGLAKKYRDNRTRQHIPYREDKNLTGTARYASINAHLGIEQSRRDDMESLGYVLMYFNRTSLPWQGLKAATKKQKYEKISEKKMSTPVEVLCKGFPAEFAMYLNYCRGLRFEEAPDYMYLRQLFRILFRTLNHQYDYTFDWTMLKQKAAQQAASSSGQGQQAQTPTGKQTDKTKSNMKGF

With `N#Cc1cc(-c2ncnc(Nc3ccc(N4CCN(C5COC5)CC4)cc3)n2)ccc1OC1CCOCC1` [Compound 1, 5-(4-((4-(4-(oxetan-3-yl)piperazin-1-yl)phenyl)amino)-1,3,5-triazin-2-yl)-2-((tetrahydro-2H-pyran-4-yl)oxy)benzonitrile] the inhibition ([1]; read-out: % Inhibition 1) was 46%, the inhibition ([1]; read-out: % Inhibition 2) was 49% and the inhibition ([1]; read-out: % Inhibition Avg) was 47%. It also gave an inhibition ([2]; read-out: % Inhibition 1) of 10%, an inhibition ([2]; read-out: % Inhibition 2) of 12% and an inhibition ([2]; read-out: % Inhibition Avg) of 11%. It also gave an inhibition ([3]; read-out: % Inhibition 1) of 5%, an inhibition ([3]; read-out: % Inhibition 2) of 9% and an inhibition ([3]; read-out: % Inhibition Avg) of 7%. The inhibition ([4]; read-out: % Inhibition 1) was 17%, the inhibition ([4]; read-out: % Inhibition 2) was 10% and the inhibition ([4]; read-out: % Inhibition Avg) was 14%. For the same compound, the inhibition ([5]; read-out: % Inhibition 1) was 2%, the inhibition ([5]; read-out: % Inhibition 2) was 1% and the inhibition ([5]; read-out: % Inhibition Avg) was 1%. The inhibition ([6]; read-out: % Inhibition 1) was 77%, the inhibition ([6]; read-out: % Inhibition 2) was 79% and the inhibition ([6]; read-out: % Inhibition Avg) was 78%. For the same compound, the inhibition ([7]; read-out: % Inhibition 1) was 7%, the inhibition ([7]; read-out: % Inhibition 2) was 8% and the inhibition ([7]; read-out: % Inhibition Avg) was 7%. The inhibition ([8]; read-out: % Inhibition 1) was 12%, the inhibition ([8]; read-out: % Inhibition 2) was 14% and the inhibition ([8]; read-out: % Inhibition Avg) was 13%. For the same compound, the inhibition ([9]; read-out: % Inhibition 1) was 28%, the inhibition ([9]; read-out: % Inhibition 2) was 27% and the inhibition ([9]; read-out: % Inhibition Avg) was 27%.
